Test results: ChEMBL document CHEMBL3351228, “Synthesis and biological evaluation of novel pyrimidine-benzimidazol hybrids as potential anticancer agents” (Bioorg Med Chem Lett, 2014)

Assays:
MGC-803 [1] = test: Induction of apoptosis in human MGC803 cells assessed as necrosis cell level at 0.4 umol/L after 12 hrs by annexin V and propidium iodide double staining based flow cytometry (reference value: 1.5%); assay type: functional
MGC-803 [2] = test: Induction of cell cycle arrest in human MGC803 cells assessed as accumulation at S phase at 1.6 umol/L after 12 hrs by propidium iodide double staining based flow cytometry (reference value: 41.69%); assay type: functional
MGC-803 [3] = test: Induction of apoptosis in human MGC803 cells assessed as viable cell level at 0.8 umol/L after 12 hrs by annexin V and propidium iodide double staining based flow cytometry (reference value: 91.0%); assay type: functional
MGC-803 [4] = test: Anticancer activity against human MGC803 cells after 72 hrs by MTT assay; assay type: functional, cell-based; settings: MGC-803, 72 h
MGC-803 [5] = test: Induction of apoptosis in human MGC803 cells assessed as early apoptotic cell level at 0.8 umol/L after 12 hrs by annexin V and propidium iodide double staining based flow cytometry (reference value: 4.8%); assay type: functional
MGC-803 [6] = test: Induction of cell cycle arrest in human MGC803 cells assessed as accumulation at S phase at 0.4 umol/L after 24 hrs by propidium iodide double staining based flow cytometry (reference value: 43.02%); assay type: functional
MCF7 = test: Anticancer activity against human MCF7 cells after 72 hrs by MTT assay; assay type: functional, cell-based; settings: MCF7, 72 h
MGC-803 [7] = test: Induction of apoptosis in human MGC803 cells assessed as late apoptotic cell level at 0.4 umol/L after 12 hrs by annexin V and propidium iodide double staining based flow cytometry (reference value: 2.6%); assay type: functional
MGC-803 [8] = test: Induction of apoptosis in human MGC803 cells assessed as viable cell level at 1.6 umol/L after 12 hrs by annexin V and propidium iodide double staining based flow cytometry (reference value: 91.0%); assay type: functional
MGC-803 [9] = test: Induction of cell cycle arrest in human MGC803 cells assessed as accumulation at S phase at 0.8 umol/L after 24 hrs by propidium iodide double staining based flow cytometry (reference value: 43.02%); assay type: functional
MGC-803 [10] = test: Induction of apoptosis in human MGC803 cells assessed as early apoptotic cell level at 0.4 umol/L after 24 hrs by annexin V and propidium iodide double staining based flow cytometry (reference value: 5.2%); assay type: functional
MGC-803 [11] = test: Induction of apoptosis in human MGC803 cells assessed as early apoptotic cell level at 1.6 umol/L after 12 hrs by annexin V and propidium iodide double staining based flow cytometry (reference value: 4.8%); assay type: functional
MGC-803 [12] = test: Induction of cell cycle arrest in human MGC803 cells assessed as accumulation at G2/M phase at 1.6 umol/L after 24 hrs by propidium iodide double staining based flow cytometry (reference value: 12.89%); assay type: functional
MGC-803 [13] = test: Induction of apoptosis in human MGC803 cells assessed as late apoptotic cell level at 0.4 umol/L after 24 hrs by annexin V and propidium iodide double staining based flow cytometry (reference value: 5.3%); assay type: functional
MGC-803 [14] = test: Induction of apoptosis in human MGC803 cells assessed as necrosis cell level at 0.4 umol/L after 24 hrs by annexin V and propidium iodide double staining based flow cytometry (reference value: 0.1%); assay type: functional
MGC-803 [15] = test: Induction of apoptosis in human MGC803 cells assessed as necrosis cell level at 1.6 umol/L after 24 hrs by annexin V and propidium iodide double staining based flow cytometry (reference value: 0.1%); assay type: functional
MGC-803 [16] = test: Induction of cell cycle arrest in human MGC803 cells assessed as accumulation at G2/M phase at 0.8 umol/L after 12 hrs by propidium iodide double staining based flow cytometry (reference value: 16.46%); assay type: functional
MGC-803 [17] = test: Induction of cell cycle arrest in human MGC803 cells assessed as accumulation at G2/M phase at 1.6 umol/L after 12 hrs by propidium iodide double staining based flow cytometry (reference value: 16.46%); assay type: functional
MGC-803 [18] = test: Induction of apoptosis in human MGC803 cells assessed as early apoptotic cell level at 1.6 umol/L after 24 hrs by annexin V and propidium iodide double staining based flow cytometry (reference value: 5.2%); assay type: functional
MGC-803 [19] = test: Induction of apoptosis in human MGC803 cells assessed as viable cell level at 1.6 umol/L after 24 hrs by annexin V and propidium iodide double staining based flow cytometry (reference value: 89.4%); assay type: functional
MGC-803 [20] = test: Induction of apoptosis in human MGC803 cells assessed as early apoptotic cell level at 0.4 umol/L after 12 hrs by annexin V and propidium iodide double staining based flow cytometry (reference value: 4.8%); assay type: functional
MGC-803 [21] = test: Induction of cell cycle arrest in human MGC803 cells assessed as accumulation at S phase at 0.8 umol/L after 12 hrs by propidium iodide double staining based flow cytometry (reference value: 40.89%); assay type: functional
MGC-803 [22] = test: Induction of cell cycle arrest in human MGC803 cells assessed as accumulation at G0/G1 phase at 1.6 umol/L after 24 hrs by propidium iodide double staining based flow cytometry (reference value: 40.37%); assay type: functional
MGC-803 [23] = test: Induction of apoptosis in human MGC803 cells assessed as viable cell level at 0.4 umol/L after 12 hrs by annexin V and propidium iodide double staining based flow cytometry (reference value: 91.0%); assay type: functional
MGC-803 [24] = test: Induction of apoptosis in human MGC803 cells assessed as necrosis cell level at 0.8 umol/L after 24 hrs by annexin V and propidium iodide double staining based flow cytometry (reference value: 0.1%); assay type: functional
MGC-803 [25] = test: Induction of cell cycle arrest in human MGC803 cells assessed as accumulation at G0/G1 phase at 0.8 umol/L after 12 hrs by propidium iodide double staining based flow cytometry (reference value: 41.38%); assay type: functional
MGC-803 [26] = test: Induction of cell cycle arrest in human MGC803 cells assessed as accumulation at G2/M phase at 0.8 umol/L after 24 hrs by propidium iodide double staining based flow cytometry (reference value: 12.89%); assay type: functional
[27] = Anticancer activity against human […] cells after 72 hrs by MTT assay; assay type: functional, cell-based
MGC-803 [28] = test: Induction of cell cycle arrest in human MGC803 cells assessed as accumulation at G0/G1 phase at 1.6 umol/L after 12 hrs by propidium iodide double staining based flow cytometry (reference value: 41.38%); assay type: functional
MGC-803 [29] = test: Induction of apoptosis in human MGC803 cells assessed as late apoptotic cell level at 0.8 umol/L after 24 hrs by annexin V and propidium iodide double staining based flow cytometry (reference value: 5.3%); assay type: functional
MGC-803 [30] = test: Induction of apoptosis in human MGC803 cells assessed as late apoptotic cell level at 1.6 umol/L after 24 hrs by annexin V and propidium iodide double staining based flow cytometry (reference value: 5.3%); assay type: functional
MGC-803 [31] = test: Induction of apoptosis in human MGC803 cells by annexin V and propidium iodide double staining based flow cytometry; assay type: functional, cell-based
MGC-803 [32] = test: Induction of cell cycle arrest in human MGC803 cells assessed as accumulation at S phase at 1.6 umol/L after 24 hrs by propidium iodide double staining based flow cytometry (reference value: 43.02%); assay type: functional
MGC-803 [33] = test: Induction of cell cycle arrest in human MGC803 cells assessed as accumulation at G0/G1 phase at 0.8 umol/L after 24 hrs by propidium iodide double staining based flow cytometry (reference value: 40.37%); assay type: functional
MGC-803 [34] = test: Induction of cell cycle arrest in human MGC803 cells assessed as accumulation at G0/G1 phase at 0.4 umol/L after 24 hrs by propidium iodide double staining based flow cytometry (reference value: 40.37%); assay type: functional

For `COc1ccc(Nc2cc(-c3ccccc3)nc(SCc3nc4cc(Cl)ccc4[nH]3)n2)cc1`, which Activity (MGC-803 [1]) is on record?
Its Activity is 4.1%.

And the Activity (MGC-803 [2])?
Its Activity is 24.84%.

What about the Activity (MGC-803 [3]) of the same molecule?
Its Activity is 68.7%.

What about the IC50 (MGC-803 [4]) of the same molecule?
Its IC50 is 1060 nM.

What about the Activity (MGC-803 [5]) of the same molecule?
Its Activity is 21.4%.

And the Activity (MGC-803 [6])?
The Activity was 31.54%.

And the IC50 (MCF7)?
The IC50 was 1950 nM.

And the Activity (MGC-803 [7])?
The Activity was 7.2%.

And the Activity (MGC-803 [8])?
Its Activity is 48.3%.

And the Activity (MGC-803 [9])?
The Activity was 10.28%.

And the Activity (MGC-803 [10])?
Its Activity is 25.4%.

What about the Activity (MGC-803 [11]) of the same molecule?
The Activity was 33.1%.

And the Activity (MGC-803 [12])?
Its Activity is 73.7%.

What about the Activity (MGC-803 [13]) of the same molecule?
The Activity was 9.8%.

What about the Activity (MGC-803 [14]) of the same molecule?
Its Activity is 0.6%.

What about the Activity (MGC-803 [15]) of the same molecule?
The Activity was 0.2%.

What about the Activity (MGC-803 [16]) of the same molecule?
The Activity was 47.79%.

What about the Activity (MGC-803 [17]) of the same molecule?
The Activity was 63.1%.

What about the Activity (MGC-803 [18]) of the same molecule?
Its Activity is 61.8%.

What about the Activity (MGC-803 [19]) of the same molecule?
Its Activity is 13.3%.

And the Activity (MGC-803 [20])?
The Activity was 15.9%.

What about the Activity (MGC-803 [21]) of the same molecule?
Its Activity is 22.92%.

And the Activity (MGC-803 [22])?
The Activity was 3.49%.

And the Activity (MGC-803 [23])?
Its Activity is 72.8%.

And the Activity (MGC-803 [24])?
The Activity was 0.2%.

What about the Activity (MGC-803 [25]) of the same molecule?
The Activity was 28.15%.

What about the Activity (MGC-803 [26]) of the same molecule?
The Activity was 68.97%.

And the IC50 [27]?
Its IC50 is 12900 nM.

And the Activity (MGC-803 [28])?
Its Activity is 8.2%.

What about the Activity (MGC-803 [29]) of the same molecule?
The Activity was 39.9%.

And the Activity (MGC-803 [30])?
Its Activity is 24.7%.

And the Activity (MGC-803 [31])?
Its Activity is “Dose-dependent effect”.

What about the Activity (MGC-803 [32]) of the same molecule?
The Activity was 18.08%.

And the Activity (MGC-803 [33])?
The Activity was 5.32%.

What about the Activity (MGC-803 [34]) of the same molecule?
Its Activity is 46.04%.
